Measured values reported in patent US20240109900A1, “AZABICYCLIC SHP2 INHIBITORS” (IRBM S.P.A., priority 2021, published 2024).
Like-named read-outs stand apart in the source and are kept apart here.

Experiments:
[1] = system: ERK phosphorylation in KYSE-520 cells; experiment: Phospho-ERK cellular assay; format: cell-based; details: read-out: PERK IC50
Summary of the method: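 TR-FRET read-out of ERK1/2 Thr202/Tyr204 phosphorylation was taken after overnight antibody incubation at room temperature. Before that, KYSE-520 cells were treated 2 h at 37 °C with compound dilutions and lysed 30 min. Percent inhibition relative to vehicle and cell-free wells was fitted four-parametrically to give IC50.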

[2] = molecular target: SHP-2 enzyme (Met1-Leu525) (Homo sapiens (Human), UniProt Q06124); experiment: SHP2 inhibition enzymatic assay; format: biochemical; details: 0.5 nM SHP-2 activated by 500 nM IRS1 peptide, 75 μM DiFMUP substrate; read-out: SHP2wt-IC50
Sequence of SHP-2 enzyme (Met1-Leu525) (Q06124 1-525): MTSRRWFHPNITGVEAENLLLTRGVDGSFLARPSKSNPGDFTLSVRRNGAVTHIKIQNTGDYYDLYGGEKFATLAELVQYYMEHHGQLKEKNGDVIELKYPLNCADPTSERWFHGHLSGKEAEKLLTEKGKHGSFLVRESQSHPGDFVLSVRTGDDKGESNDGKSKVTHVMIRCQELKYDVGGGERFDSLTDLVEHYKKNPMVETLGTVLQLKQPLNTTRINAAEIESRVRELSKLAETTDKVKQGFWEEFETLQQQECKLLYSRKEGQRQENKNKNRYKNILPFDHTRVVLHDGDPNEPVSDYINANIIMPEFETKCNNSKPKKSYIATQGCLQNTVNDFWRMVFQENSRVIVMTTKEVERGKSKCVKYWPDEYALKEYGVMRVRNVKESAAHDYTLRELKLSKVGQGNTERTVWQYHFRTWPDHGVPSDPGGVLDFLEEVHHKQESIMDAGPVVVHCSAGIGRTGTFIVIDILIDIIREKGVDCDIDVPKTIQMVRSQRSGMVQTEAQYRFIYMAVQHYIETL
Summary of the method: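 SHP-2 (Met1-Leu525), 0.5 nM, activated with 500 nM IRS1 bis-phosphopeptide, preincubated 30 min with compounds in HEPES pH 7.2 buffer with 5 mM DTT. 75 μM DiFMUP added for 30 min at room temperature, stopped with bpV; fluorescence read. IC50 from four-parameter logistic fit of % inhibition.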

[3] = KYSE-520 cells, 2 h at 37° C., phospho-ERK1/2 (Thr202/Tyr204) TR-FRET
[4] = Homo sapiens, KYSE-520, 2 h, KYSE-520 cells, 2 h at 37° C., phospho-ERK1/2 (Thr202/Tyr204) TR-FRET

| IC50 [1, 3] | IC50 [2] | IC50 [1, 4] | SMILES | IC50 ([1]; Homo sapiens, KYSE-520, 2 h) |
| --- | --- | --- | --- | --- |
| < 1 µM | < 0.5 µM |  | Cc1csc([C@@]2(CN)[C@@H]3CN(c4cnc5c(-c6ccc7ncn(C)c7c6Cl)n[nH]c5n4)C[C@@H]32)n1 [Example 483] |  |
|  | < 0.5 µM | < 1 µM | CNC[C@]1(c2nc(C)cs2)[C@@H]2CN(c3cnc4c(-c5ccc6nn(C)cc6c5Cl)n[nH]c4n3)C[C@@H]21 [Example 484, 1-((1R,5S,6r)-3-(3-(4-chloro-2-methyl-2H-indazol-5-yl)-1H-pyrazolo[3,4-b]pyrazin-6-yl)-6-(4-methylthiazol-2-yl)-3-azabicyclo[3.1.0]hexan-6-yl)-N-methylmethanamine] |  |
|  | < 0.5 µM | < 1 µM | Cc1nc([C@@]2(CN)[C@@H]3CN(c4cnc5c(-c6ccc7nn(C)cc7c6Cl)n[nH]c5n4)C[C@@H]32)cs1 [Example 485, ((1R,5S,6r)-3-(3-(4-chloro-2-methyl-2H-indazol-5-yl)-1H-pyrazolo[3,4-b]pyrazin-6-yl)-6-(2-methylthiazol-4-yl)-3-azabicyclo[3.1.0]hexan-6-yl)methanamine] |  |
|  | < 0.5 µM | < 1 µM | Cn1cc2c(Cl)c(-c3n[nH]c4nc(N5C[C@@H]6[C@H](C5)[C@@]6(CN)c5nccs5)cnc34)ccc2n1 [Example 486, ((1R,5S,6r)-3-(3-(4-chloro-2-methyl-2H-indazol-5-yl)-1H-pyrazolo[3,4-b]pyrazin-6-yl)-6-(thiazol-2-yl)-3-azabicyclo[3.1.0]hexan-6-yl)methanamine] |  |
|  | < 0.5 µM | < 1 µM | Cn1cc2c(Cl)c(-c3n[nH]c4nc(N5C[C@@H]6[C@H](C5)[C@@]6(CN)c5nc(Cl)cs5)cnc34)ccc2n1 [Example 487, ((1R,5S,6r)-3-(3-(4-chloro-2-methyl-2H-indazol-5-yl)-1H-pyrazolo[3,4-b]pyrazin-6-yl)-6-(4-chlorothiazol-2-yl)-3-azabicyclo[3.1.0]hexan-6-yl)methanamine] |  |
|  | < 0.5 µM | < 1 µM | Cn1cc2c(Cl)c(-c3n[nH]c4nc(N5C[C@@H]6[C@H](C5)[C@@]6(CN)c5nc(C(F)(F)F)cs5)cnc34)ccc2n1 [Example 488, ((1R,5S,6r)-3-(3-(4-chloro-2-methyl-2H-indazol-5-yl)-1H-pyrazolo[3,4-b]pyrazin-6-yl)-6-(4-(trifluoromethyl)thiazol-2-yl)-3-azabicyclo[3.1.0]hexan-6-yl)methanamine] |  |
|  | < 0.5 µM | < 1 µM | Cn1cc2c(Cl)c(-c3n[nH]c4nc(N5C[C@@H]6[C@H](C5)[C@@]6(CN)c5ncc(F)s5)cnc34)ccc2n1 [Example 489, ((1R,5S,6r)-3-(3-(4-chloro-2-methyl-2H-indazol-5-yl)-1H-pyrazolo[3,4-b]pyrazin-6-yl)-6-(5-fluorothiazol-2-yl)-3-azabicyclo[3.1.0]hexan-6-yl)methanamine] |  |
|  | < 0.5 µM | < 1 µM | Cn1cc2c(Cl)c(-c3n[nH]c4nc(N5C[C@@H]6[C@H](C5)[C@@]6(CN)c5cnsn5)cnc34)ccc2n1 [Example 490, ((1R,5S,6r)-3-(3-(4-chloro-2-methyl-2H-indazol-5-yl)-1H-pyrazolo[3,4-b]pyrazin-6-yl)-6-(1,2,5-thiadiazol-3-yl)-3-azabicyclo[3.1.0]hexan-6-yl)methanamine] |  |
|  | < 0.5 µM | < 1 µM | Cn1cc2c(Cl)c(-c3n[nH]c4nc(N5C[C@@H]6[C@H](C5)[C@@]6(CN)c5ccccn5)cnc34)ccc2n1 [Example 491, ((1R,5S,6r)-3-(3-(4-chloro-2-methyl-2H-indazol-5-yl)-1H-pyrazolo[3,4-b]pyrazin-6-yl)-6-(pyridin-2-yl)-3-azabicyclo[3.1.0]hexan-6-yl)methanamine] |  |
|  | < 0.5 µM | < 1 µM | Cc1nc2ccc(-c3n[nH]c4nc(N5C[C@@H]6[C@H](C5)[C@@]6(CN)c5ccccn5)cnc34)c(Cl)c2s1 [Example 492, ((1R,5S,6r)-3-(3-(7-chloro-2-methylbenzo[d]thiazol-6-yl)-1H-pyrazolo[3,4-b]pyrazin-6-yl)-6-(pyridin-2-yl)-3-azabicyclo[3.1.0]hexan-6-yl)methanamine] |  |
|  | < 0.5 µM | < 1 µM | Cc1ccc([C@@]2(CN)[C@@H]3CN(c4cnc5c(-c6ccc7nn(C)cc7c6Cl)n[nH]c5n4)C[C@@H]32)nc1 [Example 493, ((1R,5S,6r)-3-(3-(4-chloro-2-methyl-2H-indazol-5-yl)-1H-pyrazolo[3,4-b]pyrazin-6-yl)-6-(5-methylpyridin-2-yl)-3-azabicyclo[3.1.0]hexan-6-yl)methanamine] |  |
|  | < 0.5 µM | < 1 µM | Cn1cc2c(Cl)c(-c3n[nH]c4nc(N5C[C@@H]6[C@H](C5)[C@@]6(CN)c5cccc(Cl)n5)cnc34)ccc2n1 [Example 494, ((1R,5S,6r)-3-(3-(4-chloro-2-methyl-2H-indazol-5-yl)-1H-pyrazolo[3,4-b]pyrazin-6-yl)-6-(6-chloropyridin-2-yl)-3-azabicyclo[3.1.0]hexan-6-yl)methanamine] |  |
|  | < 0.5 µM | < 1 µM | Cn1cc2c(Cl)c(-c3n[nH]c4nc(N5C[C@@H]6[C@H](C5)[C@@]6(CN)c5ccc(F)cn5)cnc34)ccc2n1 [Example 495, ((1R,5S,6r)-3-(3-(4-chloro-2-methyl-2H-indazol-5-yl)-1H-pyrazolo[3,4-b]pyrazin-6-yl)-6-(5-fluoropyridin-2-yl)-3-azabicyclo[3.1.0]hexan-6-yl)methanamine] |  |
|  | < 0.5 µM | < 1 µM | Cc1cccc([C@@]2(CN)[C@@H]3CN(c4cnc5c(-c6ccc7nn(C)cc7c6Cl)n[nH]c5n4)C[C@@H]32)n1 [Example 496, ((1R,5S,6r)-3-(3-(4-chloro-2-methyl-2H-indazol-5-yl)-1H-pyrazolo[3,4-b]pyrazin-6-yl)-6-(6-methylpyridin-2-yl)-3-azabicyclo[3.1.0]hexan-6-yl)methanamine] |  |
|  | < 0.5 µM | < 1 µM | Cc1csc([C@@]2(CN)[C@@H]3CN(c4cnc5nc(Sc6ccnc(N)c6Cl)ccc5n4)C[C@@H]32)n1 [Example 497, 4-((2-((1R,5S,6r)-6-(aminomethyl)-6-(4-methylthiazol-2-yl)-3-azabicyclo[3.1.0]hexan-3-yl)pyrido[2,3-b]pyrazin-6-yl)thio)-3-chloropyridin-2-amine] |  |
|  | < 0.5 µM | < 1 µM | Cc1csc([C@@]2(CN)[C@@H]3CN(c4cnc(Sc5ccnc(N)c5Cl)cn4)C[C@@H]32)n1 [Example 498, 4-((5-((1R,5S,6r)-6-(aminomethyl)-6-(4-methylthiazol-2-yl)-3-azabicyclo[3.1.0]hexan-3-yl)pyrazin-2-yl)thio)-3-chloropyridin-2-amine] |  |
|  | < 0.5 µM | < 1 µM | Cn1cc2c(Cl)c(-c3n[nH]c4nc(N5C[C@@H]6[C@H](C5)[C@@]6(CN)c5ccccc5F)cnc34)ccc2n1 [Example 499, ((1R,5S,6s)-3-(3-(4-chloro-2-methyl-2H-indazol-5-yl)-1H-pyrazolo[3,4-b]pyrazin-6-yl)-6-(2-fluorophenyl)-3-azabicyclo[3.1.0]hexan-6-yl)methanamine] |  |
|  | < 0.5 µM | < 1 µM | Cc1nnc([C@@]2(CN)[C@@H]3CN(c4cnc5c(-c6ccc7nn(C)cc7c6Cl)n[nH]c5n4)C[C@@H]32)s1 [Example 501, ((1R,5S,6r)-3-(3-(4-chloro-2-methyl-2H-indazol-5-yl)-1H-pyrazolo[3,4-b]pyrazin-6-yl)-6-(5-methyl-1,3,4-thiadiazol-2-yl)-3-azabicyclo[3.1.0]hexan-6-yl)methanamine] |  |
| < 1 µM | < 0.5 µM |  | Cc1csc(C2(CN)[C@@H]3CN(c4cnc5c(-c6ccc(C(N)=O)c7ncccc67)n[nH]c5n4)C[C@@H]32)n1 (some centres unmarked) [Example 504] |  |
| < 1 µM | < 0.5 µM |  | Cc1csc([C@@]2(CN)[C@@H]3CN(c4cnc5c(-c6ccc7n[nH]cc7c6Cl)n[nH]c5n4)C[C@@H]32)n1 [Example 505] |  |
| < 1 µM | < 0.5 µM |  | Cc1csc([C@@]2(CN)[C@@H]3CN(c4cnc5c(-c6ccc7c(cnn7C(F)F)c6Cl)n[nH]c5n4)C[C@@H]32)n1 [Example 506] |  |
|  | < 0.5 µM | < 1 µM | NC[C@]1(c2ccccc2F)[C@@H]2CCN(c3cnc4c(-c5ccc(F)c6ncccc56)c[nH]c4n3)C[C@@H]21 [Example 507, ((1S,6R,7R)-7-(2-fluorophenyl)-3-(7-(8-fluoroquinolin-5-yl)-5H-pyrrolo[2,3-b]pyrazin-3-yl)-3-azabicyclo[4.1.0]heptan-7-yl)methanamine] |  |
|  | < 0.5 µM | < 1 µM | NC[C@]1(c2ccccc2F)[C@@H]2CCN(c3cnc4c(-c5ccnc(F)c5Cl)n[nH]c4n3)C[C@@H]21 [Example 509, ((1S,6R,7R)-3-(3-(3-chloro-2-fluoropyridin-4-yl)-1H-pyrazolo[3,4-b]pyrazin-6-yl)-7-(2-fluorophenyl)-3-azabicyclo[4.1.0]heptan-7-yl)methanamine] |  |

| SMILES | IC50 [1, 3] | IC50 [2] | IC50 [1, 4] | IC50 ([1]; Homo sapiens, KYSE-520, 2 h) |
| --- | --- | --- | --- | --- |
| COc1nccc(-c2n[nH]c3nc(N4CC[C@@H]5[C@H](C4)[C@@]5(CN)c4ccccc4F)cnc23)c1Cl [Example 500] | < 1 µM | < 0.5 µM |  |  |
| NC[C@]1(c2ccccc2F)[C@@H]2CCN(c3cnc4c(-c5ccc(S(=O)(=O)F)c6ncccc56)n[nH]c4n3)C[C@@H]21 [Example 508, 5-(6-((1S,6R,7R)-7-(aminomethyl)-7-(2-fluorophenyl)-3-azabicyclo[4.1.0]heptan-3-yl)-1H-pyrazolo[3,4-b]pyrazin-3-yl)quinoline-8-sulfonyl fluoride] |  | < 0.5 µM |  | < 1 µM |
